Assay results reported in patent US20240228500A1, “THERAPEUTIC CONJUGATES” (TOTUS MEDICINES INC., priority 2021, published 2024).

Test system: NanoLuc fused to the biological target
Test: NanoBRET binding assay of ARCS in transfected HEK293 cells with washout
Set-up: species or system human
Conditions: HEK293 cells transiently transfected with NanoLuc fusion DNA, compound incubated overnight, cells washed 5x in PBS, tracer added
Protocol: Human embryonic kidney 293-H (HEK 293, Gibco 293-H, #11631017) cell lines were maintained in Dulbecco's Modified Eagle Medium, high glucose, pyruvate (DMEM, Gibco, #11995065) supplemented with 10% fetal bovine serum (FBS, Gibco, #10082147) and 1× penicillin-streptomycin (100× solution, Gibco, #15140148) at 37° C. and 5% CO2 in a water-saturated incubator. Cells were trypsinized using 0.05% or 0.25% Trypsin-EDTA solution (Trypsin-EDTA, phenol red, Gibco, #25200056 (0.25%) or #25300054). Opti-MEM media supplemented with 10% fetal bovine serum (Opti-MEM I reduced serum media, no phenol red, Gibco, #11058021) was used for culturing cells overnight for NanoBRET readout experiments.
HEK293 cells were then cultivated appropriately prior to assay. The medium from cell flask was removed via aspiration, washed 1× with PBS followed by aspiration, trypsinized, and cells were allowed to dissociate from the flask. Trypsin is neutralized using growth medium and cells were pelleted via centrifugation at 200×g for 5 minutes. The medium was aspirated and the cells were resuspended into a single cell suspension using Opti-MEM I supplemented with 10% FBS. The cell density was adjusted to 2×10^5/mL in Opti-MEM I supplemented with 10% FBS in a sterile, conical tube. The cells were transfected and aliquoted directly in a 96-well plate for the NanoBRET assay the next day, and therefore, the cells were cultured overnight in Opti-MEM. The cells were also transfected in bulk and dispensed into a 96-well plate to allow cells to adhere to the plate overnight, thereby enabling washout studies.
The lipid:DNA complexes were then prepared as follows: A 10 μg/mL solution of DNA was prepared in Opti-MEM without serum. This solution contains the following ratios of carrier DNA and DNA encoding NanoLuc fused to the biological target. Serial dilution steps may be warranted to accurately dilute the NanoLuc fusion DNA. Added, in order, were the following reagents to a sterile polystyrene test tube: 1 mL of Opti-MEM without phenol red; 9.0 μg/mL of carrier DNA; 1.0 μg/mL of NanoLuc fusion DNA (for some targets, the amount is less). The reagents were mixed thoroughly.
[…] was added into each mL of DNA mixture to form lipid:DNA complex. […] It was mixed by pipetting up and down 5-10 times and incubated at room temperature for 20 minutes to allow complexes to form. 1 part (e.g. 1 mL) of lipid:DNA complex was mixed with 20 parts (e.g. 20 mL) of HEK293 cells in suspension at 2×10^5/mL and mixed gently by pipetting up and down 5 times in a sterile, conical tube. Larger or smaller bulk transfections were scaled accordingly, using this ratio. 100 μL cells+lipid:DNA complex was dispensed into a sterile, tissue-culture treated 96-well plate (20,000 cells/well), and incubated at least 16 hours to allow expression. The cells were incubated in a 37° C.+5% CO2 incubator for >16 hrs. A serially diluted inhibitor (i.e. ARCS) or test compound was prepared at 100× final concentration in 100% DMSO. The serially diluted inhibitor stock was prepared in PCR plates. 1 μL per well of 100× serially diluted inhibitor/test compound was added to the cells in 96-well plates that have been transiently transfected overnight and mixed by tapping the plate by hand. The plate was incubated at 37° C.+5% CO2 incubator overnight. A 1× solution of substrate mix (500× stock) and appropriate concentration of tracer was prepared in Opti-Mem. The cells were washed by setting a plate washer to the 96 well plate 5× in PBS pH 7.4 by adding 200 μL PBS each time. The cells were then incubated at 37° C. for 2 hours. 100 μL of the 1× Substrate-Tracer solution was added and the 96 well plate was gently tapped to mix. The plate on plate reader is read every hour for the next 6 hours.

Row | SMILES | Binding (Percent inhibition)
1 | C=C(C)C(=O)NCC(=O)N1CCN(Cc2cc3c(N4CCOCC4)nc(-c4cnc(NC(=O)OC)cc4C(F)(F)F)nn3c2)CC1 [Compound 1-201] | ++++ (++++ >80%)
2 | COC(=O)Nc1cc(C(F)(F)F)c(-c2nc(N3CCOCC3)c3cc(CN4CCN(C(=O)CNC(=O)/C=C/CN5CCOCC5)CC4)cn3n2)cn1 [Compound 1-202] | ++++ (++++ >80%)
3 | COC(=O)Nc1cc(C(F)(F)F)c(-c2nc(N3CCOCC3)c3cc(CN4CCN(C(=O)CNC(=O)/C=C/CN5CCN(C)CC5)CC4)cn3n2)cn1 [Compound 1-203] | ++ (++ 20-50%)
4 | COC(=O)Nc1cc(C(F)(F)F)c(-c2nc(N3CCOCC3)c3cc(CN4CCN(C(=O)CNC(=O)/C=C/CN5CC(F)(F)C5)CC4)cn3n2)cn1 [Compound 1-204] | ++++ (++++ >80%)
5 | COC(=O)Nc1cc(C(F)(F)F)c(-c2nc(N3CCOCC3)c3cc(CN4CCN(C(=O)CNC(=O)/C=C/CF)CC4)cn3n2)cn1 [Compound 1-206] | + (+ <20%)
6 | C=C(F)C(=O)NCC(=O)N1CCN(Cc2cc3c(N4CCOCC4)nc(-c4cnc(NC(=O)OC)cc4C(F)(F)F)nn3c2)CC1 [Compound 1-212] | ++++ (++++ >80%)
7 | COC(=O)Nc1cc(C(F)(F)F)c(-c2nc(N3CCOCC3)c3cc(CN4CCN(C(=O)CNC(=O)/C=C/CN5CC6(COC6)C5)CC4)cn3n2)cn1 [Compound 1-213] | + (+ <20%)
8 | COC(=O)Nc1cc(C(F)(F)F)c(-c2nc(N3CCOCC3)c3cc(CN4CCN(C(=O)CNC(C)=O)CC4)cn3n2)cn1 [Compound 1-214] | ++++ (++++ >80%)
9 | C#CCCC(=O)Nc1ccc(-c2nc(N3CCOCC3)c3cc(CN4CCN(C(=O)CNC(=O)C=C)CC4)cn3n2)cc1 [Compound 1-215] | + (+ <20%)
10 | COC(=O)Nc1cc(C(F)(F)F)c(-c2nc(N3CCOCC3)c3cc(CN4CCN(C(=O)CNC(=O)/C=C/CN5CCCCC5)CC4)cn3n2)cn1 [Compound 1-217] | ++ (++ 20-50%)
11 | C=CC(=O)NCC(=O)N1CC2(CN(Cc3cc4c(N5CCOCC5)nc(-c5cnc(NC(=O)OC)cc5C(F)(F)F)nn4c3)C2)C1 [Compound 1-223] | ++ (++ 20-50%)
12 | C=CC(=O)N1CCC(C(=O)N2CCN(Cc3cc4c(N5CCOCC5)nc(-c5cnc(NC(=O)OC)cc5C(F)(F)F)nn4c3)CC2)CC1 [Compound 1-304] | ++++ (++++ >80%)
13 | C=CC(=O)Nc1cccc(C(=O)N2CCN(Cc3cc4c(N5CCOCC5)nc(-c5cnc(NC(=O)OC)cc5C(F)(F)F)nn4c3)CC2)c1 [Compound 1-306] | ++ (++ 20-50%)
14 | C=CC(=O)N1CCC[C@@H]1C(=O)N1CCN(Cc2cc3c(N4CCOCC4)nc(-c4cnc(NC(=O)OC)cc4C(F)(F)F)nn3c2)CC1 [Compound 1-308] | ++++ (++++ >80%)
15 | C=CC(=O)N1CCC[C@H]1C(=O)N1CCN(Cc2cc3c(N4CCOCC4)nc(-c4cnc(NC(=O)OC)cc4C(F)(F)F)nn3c2)CC1 [Compound 1-309] | ++++ (++++ >80%)
16 | C=CC(=O)N(C)c1cccc(C(=O)N2CCN(Cc3cc4c(N5CCOCC5)nc(-c5cnc(NC(=O)OC)cc5C(F)(F)F)nn4c3)CC2)c1 [Compound 1-312] | ++ (++ 20-50%)
17 | C=CC(=O)N[C@H](C)C(=O)N1CCN(Cc2cc3c(N4CCOCC4)nc(-c4cnc(NC(=O)OC)cc4C(F)(F)F)nn3c2)CC1 [Compound 1-313] | ++++ (++++ >80%)
18 | C=C(OC)C(=O)NCC(=O)N1CCN(Cc2cc3c(N4CCOCC4)nc(-c4cnc(NC(=O)OC)cc4C(F)(F)F)nn3c2)CC1 [Compound 1-314] | ++++ (++++ >80%)
19 | C=CC(=O)N[C@@H](C)C(=O)N1CCN(Cc2cc3c(N4CCOCC4)nc(-c4cnc(NC(=O)OC)cc4C(F)(F)F)nn3c2)CC1 [Compound 1-315] | ++++ (++++ >80%)
